How the values were obtained:
[1] = target: T1, endogenous wild-type K-Ras protein (Mus musculus, UniProt P32883); test: Degradation of endogenous wild-type K-Ras protein in mouse pancreas and colorectal tissue, Western blot analysis; assay type: in vivo; conditions: C57BL/6J mice, intraperitoneal, 48 hours, FIG. 8
T1 construct: an endogenous wild-type K-Ras protein and wild-type H-Ras protein; from tissue; host or cells: mouse pancreas and colon
Description: In Example 9, in a mouse individual to which TUS-007 had been administered, the degradation (knockdown) of an endogenous wild-type K-Ras protein and wild-type H-Ras protein was evaluated by Western blot analysis.
TUS-007 was dissolved in DMSO, and then dissolved in corn oil so that the concentration of DMSO was 10 vol %, and then intraperitoneally administered to C57BL/6J wild-type mice (8 to 9 weeks old, male) (CLEA Japan, Inc.) in an amount of 40 mg/kg body weight or 80 mg/kg body weight (n=3 to 4). Furthermore, in addition to a group in which TUS-007 was administered, a group in which Ras-SOS had been administered in a dose of 80 mg/kg body weight was prepared. As a control, an injection carrier (corn oil containing 10 vol % DMSO) was used. The mice were kept under an environment of ad libitum access to food and water. The mice were dissected under deep anesthesia 48 hours after administration. The pancreas and colon were excised, and flash frozen in liquid nitrogen.
The frozen pancreas and colon were each triturated, and then TKM tissue lysis buffer (50 mM triethanolamine (pH 7.8), 50 mM KCl, 5 mM MgCl2, 0.25 M sucrose, 1 mM PMSF, Protein Inhibitors Cocktail-EDTA free (Nacalai Tesque, Inc.), 1 mM DTT, and a recombinant RNase inhibitor (0.2 U/μL, Takara Bio) were added, and subjected to centrifugation (at 13800 rpm×30 minutes, 4° C.), and the supernatants (pancreatic tissue extract and colorectal tissue extract) were collected. The concentration of the extracted proteins was quantified with a spectrophotometer.
Each tissue extract collected was subjected to Western blot analysis. […]
After electrophoresis, proteins were transferred to a PVDF membrane (Immobion™-P, Millipore) under conditions of 200 mA and 90 minutes using a tank-type blotting device and a transfer buffer (25 mM Tris-HCl, 195 mM glycine, 0.01% SDS, 15% methanol). […] Subsequently, the membrane was treated with a chemiluminescence reagent Immobilon™ Western (Millipore), and then chemiluminescence was detected using a lumino image analyzer LAS-3000 (FUJIFILM Corporation).

[2] = Body weight change and general condition of mice with subcutaneously implanted SW1990 cells; assay type: in vivo, mouse; conditions: oral 80 mg/kg once every 3 days, 7 doses
Description: To the subcutis of T-cell deficient mice (BALB/cAJcl-nu/nu, 4 weeks old, female) (CLEA Japan, Inc.), 0.1 mL of cell suspension in which SW1990 cells were suspended in PBS so as to be 1×10^7 cells/mL was implanted using a 26-gauge injection needle (TERUMO CORPORATION).
Immediately before administration, TUS-007 was dissolved in DMSO, 0.5 mass % carboxymethyl cellulose (Code No. 039-01335, Wako Pure Chemical Industries, Ltd.) solution was added so that the concentration of DMSO became 2.5 vol %, followed by pulverization by ultrasonic treatment to prepare a suspension of TUS-007. When the tumors of mice with subcutaneously implanted SW1990 cells grew to a size of approximately 100 mm^3, the prepared TUS-007 suspension was orally administered by gavage with a gastric tube (Code No. 5202K, Fuchigami Kikai) at a dose of 80 mg/kg body weight once every 3 days for a total of 7 doses (n=6 to 9). As a control (Vehicle), 0.5 mass % carboxymethyl cellulose solution containing 2.5 vol % DMSO was administered in the same manner.

T1 sequence (P32883 whole entry): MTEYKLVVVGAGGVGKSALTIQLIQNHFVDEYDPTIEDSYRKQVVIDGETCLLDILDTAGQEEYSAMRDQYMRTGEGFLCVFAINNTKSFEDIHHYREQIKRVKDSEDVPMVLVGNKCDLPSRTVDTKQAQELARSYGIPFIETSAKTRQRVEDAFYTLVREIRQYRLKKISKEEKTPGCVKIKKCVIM

## CCC(C)[C@H](NC(=O)CCCCCCNC(=O)[C@H](CC(C)C)NC(=O)CNC(=O)c1cc(Cl)ccc1Cl)C(=O)Nc1ccc2[nH]c(Cc3c[nH]c4ccccc34)nc2c1 (stereo in doubt) [TUS-007]
[1]; 40 or 80 mg/kg, pancreatic tissue
  amount of the endogenous wild-type K-Ras protein in the pancreatic tissue (Western blot): remarkably reduced in the pancreatic tissue
[1]; TUS-007 40 or 80 mg/kg, Ras-SOS 80 mg/kg, pancreas and colon
  amount of the endogenous wild-type K-Ras protein in mouse tissues (Western blot): reduced in a concentration-dependent manner
[2]
  general condition of the mice: no abnormality in the general condition of the mice
[2]; vs Vehicle, FIG. 9B
  body weight changes: no significant differences in body weight changes
